Measurements reported in US7834048B2, “Azabicycloheptyl compounds suitable for treating disorders that respond to modulation of the dopamine D3 receptor” (Abbott GmbH & Co. KG, priority 2004, dated 2010).

What was measured:
[1] = target: T1, human dopamine D3 receptors (Homo sapiens, UniProt P35462); assay: Dopamine D3 receptor binding, [125I]-iodosulpride displacement, HEK-293 membranes; conditions: for Ki(D2)*/Ki(D3)*: selectivity, ratio of receptor binding constants D2L vs D3; for Ki: receptor binding constant, membranes of HEK-293 cells, 0.1 nM [125I]-iodosulpride, 25° C., 60 minutes
T1 construct: expressed in transfected cells
T1 sequence (P35462 whole entry): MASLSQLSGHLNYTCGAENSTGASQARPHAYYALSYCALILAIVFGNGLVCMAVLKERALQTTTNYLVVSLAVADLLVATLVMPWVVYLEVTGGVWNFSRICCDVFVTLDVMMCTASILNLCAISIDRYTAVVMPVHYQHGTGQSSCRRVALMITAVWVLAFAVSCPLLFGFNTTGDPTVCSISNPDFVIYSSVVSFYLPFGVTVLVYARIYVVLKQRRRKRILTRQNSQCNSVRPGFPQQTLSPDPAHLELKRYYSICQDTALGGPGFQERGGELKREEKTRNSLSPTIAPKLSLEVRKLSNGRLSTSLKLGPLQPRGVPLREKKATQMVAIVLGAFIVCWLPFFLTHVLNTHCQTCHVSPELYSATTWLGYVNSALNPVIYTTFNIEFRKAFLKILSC
Method: (§1) The substance to be tested was either dissolved in methanol/Chremophor® (BASF-AG) or in dimethyl sulfoxide and then diluted with water to the desired concentration.
(§2) Each assay mixture was run in triplicate.
The incubation buffer contained 50 mM tris, 120 mM NaCl, 5 mM KCl, 2 mM CaCl2, 2 mM MgCl2 and 0.1% bovine serum albumin, 10 μM […] and 0.1% ascorbic acid (prepared fresh daily). The buffer was adjusted to pH 7.4 with HCl.
(§3) After having been incubated at 25° C. for 60 minutes, the assay mixtures were filtered through a Whatman GF/B glass fiber filter under vacuum using a cell collecting device. The filters were transferred to scintillation viols using a filter transfer system. After 4 ml of Ultima Gold® (Packard) have been added, the samples were shaken for one hour and the radioactivity was then counted in a Beta-Counter (Packard, Tricarb 2000 or 2200CA). The cpm values were converted into dpm using a standard quench series and the program belonging to the instrument.
(§4) The inhibition curves were analyzed by means of iterative nonlinear regression analysis using the Statistical Analysis System (SAS) which is similar to the “LIGAND” program described by Munson and Rodbard.
(§5) The results of the receptor binding studies are expressed as receptor binding constants Ki(D2) and Ki(D3), respectively, as herein before described, and given in table 1.

[2] = target: T2, human dopamine D2L receptors (long isoform) (Homo sapiens, UniProt P14416); assay: Dopamine D2L receptor binding, [125I]iodospiperone displacement, HEK-293 membranes; conditions: receptor binding constant; membranes of HEK-293 cells, 0.01 nM [125I]iodospiperone, 25° C., 60 minutes; read-out: Ki(D2)*
T2 construct: expressed in transfected cells
T2 sequence (P14416 whole entry, canonical isoform): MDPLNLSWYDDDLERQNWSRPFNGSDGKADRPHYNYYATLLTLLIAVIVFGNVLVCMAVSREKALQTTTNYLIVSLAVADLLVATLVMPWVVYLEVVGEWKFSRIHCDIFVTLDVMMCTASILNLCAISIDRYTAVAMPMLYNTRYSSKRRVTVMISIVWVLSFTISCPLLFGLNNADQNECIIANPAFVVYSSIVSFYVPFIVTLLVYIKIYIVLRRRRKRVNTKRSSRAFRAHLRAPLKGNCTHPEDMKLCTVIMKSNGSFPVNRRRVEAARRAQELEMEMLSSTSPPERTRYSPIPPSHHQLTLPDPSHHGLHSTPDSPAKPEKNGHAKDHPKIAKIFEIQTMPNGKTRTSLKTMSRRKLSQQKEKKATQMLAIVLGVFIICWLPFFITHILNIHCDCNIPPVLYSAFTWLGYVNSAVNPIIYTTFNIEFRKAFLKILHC
Method: as §1, §2
The incubation buffer contained 50 mM tris, 120 mM NaCl, 5 mM KCl, 2 mM CaCl2, 2 mM MgCl2 and 0.1% bovine serum albumin. The buffer was adjusted to pH 7.4 with HCl.
as §3, §4, §5

Row | SMILES | Ki(D2)*/Ki(D3)* [1] | Ki [2] [nM] | Ki [1] [nM]
1 | CCCN1C[C@H]2C[C@H](c3ccc(NS(=O)(=O)c4ccc(C(C)C)cc4)cc3)[C@H]2C1 (relative stereo) [Example 3, 4-Isopropyl-N-[4-(exo-3-propyl-3-aza-bicyclo[3.2.0]hept-6-yl)-phenyl]-benzenesulfonamide] | 45 | – | –
2 | CCCN1C[C@@H]2C[C@@H](c3ccc(NS(=O)(=O)c4ccc(N5CCC[C@@H]5COC)cc4)cc3)[C@@H]2C1 [Example 9, 4-((R)-2-Methoxymethyl-pyrrolidin-1-yl)-N-[4-((1R,5S,6R)-3-propyl-3-azabicyclo[3.2.0]hept-6-yl)-phenyl]-benzenesulfonamide] | 13 | 54.8 | 4.08
3 | CCCN1C[C@@H]2C[C@@H](c3ccc(NS(=O)(=O)c4ccc(N5CCCC5)cc4)cc3)[C@@H]2C1 [Example 10, N-[4-((1R,5S,6R)-3-Propyl-3-aza-bicyclo[3.2.0]hept-6-yl)-phenyl]-4-pyrrolidin-1-yl-benzenesulfonamide] | 16 | 32 | 1.98
4 | CCCN1C[C@@H]2C[C@@H](c3ccc(NS(=O)(=O)c4ccc(C(F)(F)F)cc4)cc3)[C@@H]2C1 [Example 5, N-[4-((1R,5S,6R)-3-Propyl-3-aza-bicyclo[3.2.0]hept-6-yl)-phenyl]-4-trifluoromethyl-benzenesulfonamide] | 23 | 72.1 | 3.15
5 | CCCN1C[C@H]2C[C@H](c3ccc(NS(=O)(=O)c4ccc(C(C)C)cc4)cc3)[C@H]2C1 [Example 14, 4-Isopropyl-N-[4-((1S,5R,6S)-3-propyl-3-aza-bicyclo[3.2.0]hept-6-yl)-phenyl]-benzenesulfonamide] | 8 | – | –
6 | CCCN1C[C@@H]2C[C@@H](c3ccc(NS(=O)(=O)c4ccc(SC(F)(F)F)cc4)cc3)[C@@H]2C1 [Example 8, N-[4-((1R,5S,6R)-3-Propyl-3-aza-bicyclo[3.2.0]hept-6-yl)-phenyl]-4-trifluoromethylsulfanyl-benzenesulfonamide] | 17 | 30.2 | 1.81
7 | CCCN1C[C@@H]2C[C@@H](c3ccc(NS(=O)(=O)c4ccc(N5CCC5)cc4)cc3)[C@@H]2C1 [Example 11, 4-Azetidin-1-yl-N-[4-((1R,5S,6R)-3-propyl-3-aza-bicyclo[3.2.0]hept-6-yl)-phenyl]-benzenesulfonamide] | 26 | 56.7 | 2.19
8 | CCCN1C[C@@H]2C[C@@H](c3ccc(NS(=O)(=O)c4ccc(-c5ccco5)cc4)cc3)[C@@H]2C1 [Example 12, N-[4-((1R,5S,6R)-3-Propyl-3-aza-bicyclo[3.2.0]hept-6-yl)-phenyl]-4-furan-2-yl-benzenesulfonamide] | 8 | 37.6 | 4.46
9 | CCCN1C[C@H]2C[C@@H](c3ccc(NS(=O)(=O)c4ccc(C(C)C)cc4)cc3)[C@H]2C1 (relative stereo) [Example 16, endo-4-Isopropyl-N-[4-(3-propyl-3-aza-bicyclo[3.2.0]hept-6-yl)-phenyl]-benzenesulfonamide] | 39 | 208 | 5.3
10 | CCCN1C[C@@H]2C[C@@H](c3ccc(NS(=O)(=O)c4ccc(OC(F)(F)F)cc4)cc3)[C@@H]2C1 [Example 4, N-[4-((1R,5S,6R)-3-Propyl-3-aza-bicyclo[3.2.0]hept-6-yl)-phenyl]-4-trifluoromethoxy-benzenesulfonamide] | 12 | 66.6 | 5.43
11 | CCCN1C[C@@H]2C[C@@H](c3ccc(NS(=O)(=O)c4ccc(Br)cc4)cc3)[C@@H]2C1 [Example 7, 4-Bromo-N-[4-((1R,5S,6R)-3-propyl-3-aza-bicyclo[3.2.0]hept-6-yl)-phenyl]-benzenesulfonamide] | 24 | 31.7 | 1.31
12 | CCCN1C[C@@H]2C[C@@H](c3ccc(NS(=O)(=O)c4ccc(C(C)C)cc4)cc3)[C@@H]2C1 [Example 1, 4-Isopropyl-N-[4-((1R,5S,6R)-3-propyl-3-aza-bicyclo[3.2.0]hept-6-yl)-phenyl]-benzenesulfonamide] | 28 | 12.9 | 0.47
13 | C=CCN1C[C@@H]2C[C@@H](c3ccc(NS(=O)(=O)c4ccc(OC(F)(F)F)cc4)cc3)[C@@H]2C1 [Example 6, N-[4-((1R,5S,6R)-3-Allyl-3-aza-bicyclo[3.2.0]hept-6-yl)-phenyl]-4-trifluoromethoxy-benzenesulfonamide] | 11 | 47 | 4.13
14 | CCCN1C[C@@H]2C[C@@H](c3ccc(NS(=O)(=O)c4ccc(-c5cccs5)cc4)cc3)[C@@H]2C1 [Example 13, N-[4-((1R,5S,6R)-3-Propyl-3-aza-bicyclo[3.2.0]hept-6-yl)-phenyl]-4-thiophen-2-yl-benzenesulfonamide] | 10 | 13.1 | 1.32
